# Laboratory results published in ChEMBL document CHEMBL2021921 (Bioorg Med Chem Lett, 2012).
# Calls of active or inactive are those of the source. No cut-off for these calls is given here. Where a SMILES comes first, the peptide text is derived from it. [ ]: non-standard residue; d: D form. The star is where a group is joined. Adenosine(5'-uronoyl) = Nc1ncnc2c1ncn2[C@@H]1O[C@H](C(=O)*)[C@@H](O)[C@H]1O; X1 = Nc1nccc(-c2ccc(C(=O)*)s2)n1; Ahx = NCCCCCC(=O)O
# What was measured:
# [1] = biological target: T1, Rho-associated protein kinase 2 (Homo sapiens, UniProt O75116); test: Displacement of fluorescent-ARC-1042 from His6-tagged recombinant human ROCK2 by fluorescence anisotropy assay
# Target sequence in this assay (O75116 whole entry): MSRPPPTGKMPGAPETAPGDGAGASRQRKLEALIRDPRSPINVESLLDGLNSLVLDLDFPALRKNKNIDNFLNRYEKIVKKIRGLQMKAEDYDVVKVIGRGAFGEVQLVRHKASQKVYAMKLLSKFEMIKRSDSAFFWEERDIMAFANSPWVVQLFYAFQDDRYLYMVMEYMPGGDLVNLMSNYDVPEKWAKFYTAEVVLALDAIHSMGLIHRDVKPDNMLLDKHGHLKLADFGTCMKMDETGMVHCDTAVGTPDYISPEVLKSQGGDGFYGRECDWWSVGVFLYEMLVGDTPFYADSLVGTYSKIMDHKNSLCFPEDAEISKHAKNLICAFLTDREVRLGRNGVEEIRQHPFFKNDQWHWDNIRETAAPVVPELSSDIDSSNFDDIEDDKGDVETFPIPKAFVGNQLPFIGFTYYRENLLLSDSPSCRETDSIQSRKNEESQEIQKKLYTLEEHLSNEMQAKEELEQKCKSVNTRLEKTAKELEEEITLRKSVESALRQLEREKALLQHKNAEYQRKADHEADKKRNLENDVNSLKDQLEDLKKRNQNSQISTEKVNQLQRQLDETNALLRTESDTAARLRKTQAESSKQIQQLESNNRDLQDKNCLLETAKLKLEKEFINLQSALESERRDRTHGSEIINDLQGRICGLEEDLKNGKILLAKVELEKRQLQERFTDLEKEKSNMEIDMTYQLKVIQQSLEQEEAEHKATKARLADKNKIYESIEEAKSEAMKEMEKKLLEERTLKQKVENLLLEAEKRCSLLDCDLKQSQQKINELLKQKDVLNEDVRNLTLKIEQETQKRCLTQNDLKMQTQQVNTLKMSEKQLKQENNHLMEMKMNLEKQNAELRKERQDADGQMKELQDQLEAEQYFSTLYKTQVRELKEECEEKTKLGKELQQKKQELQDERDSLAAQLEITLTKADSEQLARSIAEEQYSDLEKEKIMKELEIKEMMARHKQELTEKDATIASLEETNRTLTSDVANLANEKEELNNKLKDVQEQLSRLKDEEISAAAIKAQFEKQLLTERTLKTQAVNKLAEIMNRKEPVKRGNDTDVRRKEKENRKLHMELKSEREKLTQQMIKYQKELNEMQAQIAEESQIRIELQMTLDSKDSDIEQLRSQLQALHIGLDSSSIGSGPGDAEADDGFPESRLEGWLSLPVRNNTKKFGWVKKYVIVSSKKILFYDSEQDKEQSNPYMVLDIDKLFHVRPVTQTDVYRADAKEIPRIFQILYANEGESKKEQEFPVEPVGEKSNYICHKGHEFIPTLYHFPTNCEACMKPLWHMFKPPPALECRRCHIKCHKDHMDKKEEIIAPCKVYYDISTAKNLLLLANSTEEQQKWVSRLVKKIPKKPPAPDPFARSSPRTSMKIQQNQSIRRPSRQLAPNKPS
# [2] = Displacement of fluorescent-ARC-583 from recombinant bovine PKAc by fluorescence anisotropy assay; parameters: species or system Bos taurus
# [3] = biological target: T2, cGMP-dependent protein kinase 1 (Homo sapiens, UniProt Q13976); test: Displacement of fluorescent-ARC-583/ARC-1042/ARC-1059 from His6-tagged recombinant human PKG1alpha by fluorescence anisotropy assay
# T2 sequence (Q13976 whole entry): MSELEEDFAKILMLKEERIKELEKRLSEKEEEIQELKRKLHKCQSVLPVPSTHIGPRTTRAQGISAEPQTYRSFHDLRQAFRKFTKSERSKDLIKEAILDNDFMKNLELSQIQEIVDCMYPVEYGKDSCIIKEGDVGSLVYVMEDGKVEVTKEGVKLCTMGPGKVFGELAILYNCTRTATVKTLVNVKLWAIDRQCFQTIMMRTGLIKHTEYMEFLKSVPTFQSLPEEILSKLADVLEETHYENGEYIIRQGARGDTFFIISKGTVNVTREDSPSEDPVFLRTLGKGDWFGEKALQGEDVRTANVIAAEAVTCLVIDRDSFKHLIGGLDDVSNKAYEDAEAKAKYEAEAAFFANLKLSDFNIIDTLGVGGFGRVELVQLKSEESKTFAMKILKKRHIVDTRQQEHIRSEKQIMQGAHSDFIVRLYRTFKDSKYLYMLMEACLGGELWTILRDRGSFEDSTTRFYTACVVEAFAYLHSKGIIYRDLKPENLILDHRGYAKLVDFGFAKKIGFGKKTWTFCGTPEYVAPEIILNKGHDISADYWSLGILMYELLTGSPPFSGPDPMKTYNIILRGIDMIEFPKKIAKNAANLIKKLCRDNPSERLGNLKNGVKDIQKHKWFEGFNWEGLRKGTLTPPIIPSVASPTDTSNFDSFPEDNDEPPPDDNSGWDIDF
# [4] = biological target: T1, Rho-associated protein kinase 2; test: Displacement of fluorescent-ARC-1063 from His6-tagged recombinant human ROCK2 by luminescence intensity assay
# Target sequence in this assay (O75116 whole entry): as the sequence (O75116 whole entry) above
# [5] = biological target: T1, Rho-associated protein kinase 2; test: Displacement of fluorescent-ARC-583/ARC-1042/ARC-1059 from His6-tagged recombinant human ROCK2 by fluorescence anisotropy assay
# Target sequence in this assay (O75116 whole entry): as the sequence (O75116 whole entry) above
# [6] = biological target: Ribosomal protein S6 kinase alpha-5 (Homo sapiens, UniProt O75582); test: Displacement of fluorescent-ARC-583/ARC-1042/ARC-1059 from His6-tagged recombinant human MSK1 by fluorescence anisotropy assay
# [7] = biological target: Ribosomal protein S6 kinase beta-1 (Homo sapiens, UniProt P23443); test: Displacement of fluorescent-ARC-583/ARC-1042/ARC-1059 from His6-tagged recombinant human p70S6K by fluorescence anisotropy assay
# [8] = biological target: RAC-gamma serine/threonine-protein kinase (Homo sapiens, UniProt Q9Y243, S472D); test: Displacement of fluorescent-ARC-583/ARC-1042/ARC-1059 from His6-tagged recombinant human AKT3 S472D mutant by fluorescence anisotropy assay
# [9] = species: Bos taurus; test: Displacement of fluorescent-ARC-1063 from recombinant bovine PKAc by fluorescence anisotropy assay
# [10] = biological target: T1, Rho-associated protein kinase 2; test: Displacement of fluorescent-ARC-1063 from His6-tagged recombinant human ROCK2 by fluorescence anisotropy assay
# Target sequence in this assay (O75116 whole entry, looked up): as the sequence (O75116 whole entry) above
# [11] = Selectivity ratio of Kd for His6-tagged recombinant human ROCK2 to Kd for recombinant bovine PKAc
# [12] = Displacement of fluorescent-ARC-1063 from recombinant bovine PKAc by luminescence intensity assay; parameters: species or system Bos taurus
# [13] = Binding affinity to PKG
# [14] = Binding affinity to PKAc
# [15] = Displacement of fluorescent-ARC-583/ARC-1042/ARC-1059 from recombinant bovine PKAc by fluorescence anisotropy assay; parameters: species or system Bos taurus
# [16] = Displacement of fluorescent-ARC-583/ARC-1042/ARC-1059 from His6-tagged recombinant human PKCeta S472D mutant by fluorescence anisotropy assay
# [17] = Inhibition of PKC
# [18] = Inhibition of catalytic subunit of PKA
# Ribosomal protein S6 kinase alpha-5, sequence (O75582 whole entry): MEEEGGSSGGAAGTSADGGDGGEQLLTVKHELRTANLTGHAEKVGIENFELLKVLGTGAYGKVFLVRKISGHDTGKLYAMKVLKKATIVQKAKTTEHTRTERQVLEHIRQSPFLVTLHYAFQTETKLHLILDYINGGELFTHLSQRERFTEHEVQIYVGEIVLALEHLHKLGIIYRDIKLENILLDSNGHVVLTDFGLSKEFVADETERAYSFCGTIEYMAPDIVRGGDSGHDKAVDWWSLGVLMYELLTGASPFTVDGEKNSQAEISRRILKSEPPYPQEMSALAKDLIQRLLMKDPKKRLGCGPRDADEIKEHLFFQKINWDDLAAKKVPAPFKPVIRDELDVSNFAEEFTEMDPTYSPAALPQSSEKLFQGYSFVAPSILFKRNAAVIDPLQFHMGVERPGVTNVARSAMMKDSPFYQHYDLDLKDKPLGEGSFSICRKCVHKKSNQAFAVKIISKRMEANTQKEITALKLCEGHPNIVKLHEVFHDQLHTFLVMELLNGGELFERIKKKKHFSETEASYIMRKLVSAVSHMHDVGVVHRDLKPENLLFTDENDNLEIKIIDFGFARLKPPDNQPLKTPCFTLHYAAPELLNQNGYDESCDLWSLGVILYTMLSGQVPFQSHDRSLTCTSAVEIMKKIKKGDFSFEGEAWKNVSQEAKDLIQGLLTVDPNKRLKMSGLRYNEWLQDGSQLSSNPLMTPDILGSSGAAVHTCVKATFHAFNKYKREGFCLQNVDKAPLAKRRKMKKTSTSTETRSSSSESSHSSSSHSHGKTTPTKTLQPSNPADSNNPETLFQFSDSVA
# Ribosomal protein S6 kinase beta-1, sequence (P23443 whole entry): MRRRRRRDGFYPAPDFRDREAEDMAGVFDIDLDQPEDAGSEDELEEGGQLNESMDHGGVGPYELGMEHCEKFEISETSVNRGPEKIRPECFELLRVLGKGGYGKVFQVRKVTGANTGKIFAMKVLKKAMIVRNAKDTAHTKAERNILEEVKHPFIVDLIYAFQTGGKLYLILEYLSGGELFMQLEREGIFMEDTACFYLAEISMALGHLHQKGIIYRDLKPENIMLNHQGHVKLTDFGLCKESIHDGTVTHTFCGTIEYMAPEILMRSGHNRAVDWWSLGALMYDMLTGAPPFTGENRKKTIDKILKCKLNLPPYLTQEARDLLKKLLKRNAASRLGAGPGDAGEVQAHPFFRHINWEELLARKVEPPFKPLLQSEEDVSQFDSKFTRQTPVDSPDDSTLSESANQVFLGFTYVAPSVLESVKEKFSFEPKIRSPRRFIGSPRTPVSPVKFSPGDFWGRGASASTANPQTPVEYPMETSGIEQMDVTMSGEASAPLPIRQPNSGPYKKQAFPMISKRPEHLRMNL
# RAC-gamma serine/threonine-protein kinase, sequence (Q9Y243 2-479 S472D limits assumed): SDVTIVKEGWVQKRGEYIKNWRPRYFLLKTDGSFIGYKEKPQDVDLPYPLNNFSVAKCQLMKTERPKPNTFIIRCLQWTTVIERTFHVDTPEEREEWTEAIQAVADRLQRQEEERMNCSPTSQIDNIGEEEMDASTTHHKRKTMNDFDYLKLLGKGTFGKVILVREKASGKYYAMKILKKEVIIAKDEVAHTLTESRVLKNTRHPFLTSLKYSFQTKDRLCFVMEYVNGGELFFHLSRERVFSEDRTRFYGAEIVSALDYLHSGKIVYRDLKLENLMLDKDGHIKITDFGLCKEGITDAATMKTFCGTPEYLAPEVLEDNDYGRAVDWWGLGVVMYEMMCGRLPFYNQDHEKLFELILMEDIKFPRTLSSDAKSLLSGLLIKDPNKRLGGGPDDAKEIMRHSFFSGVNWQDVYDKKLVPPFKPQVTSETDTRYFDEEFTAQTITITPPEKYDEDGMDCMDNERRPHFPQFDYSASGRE
smiles,measurement,setting,value
N=C(N)NCCC[C@@H](NC(=O)[C@@H](CCCNC(=N)N)NC(=O)CCCCCNC(=O)[C@@H](CCCCN)NC(=O)CNCC(=O)NCCNS(=O)(=O)c1cccc2cnccc12)C(N)=O,pIC50,[1],> 4.5
same,Kd,[2],2500 nM
same,pIC50,[2],4.78
NCCCC[C@@H](NC(=O)CCCCCCCN1CCCN(S(=O)(=O)c2cccc3cnccc23)CC1)C(=O)NCCCCCC(=O)N[C@H](CCCN=C(N)N)C(=O)N[C@H](CCCN=C(N)N)C(N)=O,IC50,[3],1860 nM
same,Kd,[3],630 nM
same,IC50,[4],6760 nM
same,Kd,[4],45 nM
same,IC50,[5],631 nM
same,Kd,[5],27 nM
same,IC50,[6],4570 nM
same,Kd,[6],1600 nM
same,IC50,[7],3310 nM
same,Kd,[7],860 nM
same,IC50,[8],9120 nM
same,Kd,[8],7100 nM
N=C(N)NCCC[C@@H](NC(=O)[C@@H](CCCNC(=N)N)NC(=O)[C@@H](CCCNC(=N)N)NC(=O)[C@@H](CCCNC(=N)N)NC(=O)[C@@H](CCCNC(=N)N)NC(=O)[C@@H](CCCNC(=N)N)NC(=O)CCCCCNC(=O)[C@@H](CCCCN)NC(=O)CNCC(=O)NCCNS(=O)(=O)c1cccc2cnccc12)C(N)=O,IC50,[1],34.7 nM
same,Kd,[1],1.5 nM
same,Kd,[2],130 nM
same,pIC50,[2],6.07
N=C(N)NCCC[C@@H](NC(=O)[C@@H](CCCNC(=N)N)NC(=O)CCCCCNC(=O)[C@H](CCCCN)NC(=O)CNCC(=O)NCCNS(=O)(=O)c1cccc2cnccc12)C(N)=O,IC50,[1],16200 nM
same,Kd,[1],690 nM
same,pIC50,[2],> 4.5
N=C(N)NCCC[C@@H](NC(=O)[C@@H](CCCNC(=N)N)NC(=O)[C@@H](CCCNC(=N)N)NC(=O)[C@@H](CCCNC(=N)N)NC(=O)[C@@H](CCCNC(=N)N)NC(=O)[C@@H](CCCNC(=N)N)NC(=O)CCCCCNC(=O)[C@@H](CCCCN)NC(=O)CCCCCCCN1CCCN(S(=O)(=O)c2cccc3cnccc23)CC1)C(N)=O,inhibition,[9],Active
same,inhibition,[10],Active
same,IC50,[4],10.2 nM
same,Kd,[4],0.02 nM
same,Selectivity Index,[11],165
same,Kd,[12],3.3 nM
same,pIC50,[12],5.01
N=C(N)NCCC[C@@H](NC(=O)[C@@H](CCCNC(=N)N)NC(=O)[C@@H](CCCNC(=N)N)NC(=O)[C@@H](CCCNC(=N)N)NC(=O)[C@@H](CCCNC(=N)N)NC(=O)[C@@H](CCCNC(=N)N)NC(=O)CCCCCNC(=O)[C@@H](CCCCN)NC(=O)CCNC(=O)CNCC(=O)NCCNS(=O)(=O)c1cccc2cnccc12)C(N)=O,IC50,[1],17.8 nM
same,Kd,[1],0.7 nM
same,Kd,[2],24 nM
same,pIC50,[2],6.79
NCCNS(=O)(=O)c1cccc2cnccc12,Ki,[13],800 nM
same,Ki,[14],1900 nM
N=C(N)NCCC[C@@H](NC(=O)[C@@H](CCCNC(=N)N)NC(=O)[C@@H](CCCNC(=N)N)NC(=O)[C@@H](CCCNC(=N)N)NC(=O)[C@@H](CCCNC(=N)N)NC(=O)[C@@H](CCCNC(=N)N)NC(=O)CCCCCNC(=O)[C@@H](CCCCN)NC(=O)CCCCCNC(=O)[C@H]1O[C@@H](n2cnc3c(N)ncnc32)[C@H](O)[C@@H]1O)C(N)=O ({Adenosine(5'-uronoyl)-Ahx}-[dK][Ahx][dR][dR][dR][dR][dR][dR]-NH2),IC50,[4],10.5 nM
same,Kd,[4],0.021 nM
same,Selectivity Index,[11],12
same,Kd,[12],0.26 nM
same,pIC50,[12],6.12
N=C(N)NCCC[C@@H](NC(=O)[C@@H](CCCNC(=N)N)NC(=O)[C@@H](CCCNC(=N)N)NC(=O)[C@@H](CCCNC(=N)N)NC(=O)[C@@H](CCCNC(=N)N)NC(=O)[C@@H](CCCNC(=N)N)NC(=O)CCCCCNC(=O)[C@H]1O[C@@H](n2cnc3c(N)ncnc32)[C@H](O)[C@@H]1O)C(N)=O,Kd,[12],0.25 nM
same,pIC50,[12],6.12
NCCCC[C@@H](NC(=O)CCCCCNC(=O)c1ccc(-c2ccnc(N)n2)s1)C(=O)NCCCCCC(=O)N[C@H](CCCN=C(N)N)C(=O)N[C@H](CCCN=C(N)N)C(=O)N[C@H](CCCN=C(N)N)C(=O)N[C@H](CCCN=C(N)N)C(=O)N[C@H](CCCN=C(N)N)C(=O)N[C@H](CCCN=C(N)N)C(N)=O ({X1-Ahx}-[dK][Ahx][dR][dR][dR][dR][dR][dR]-NH2),IC50,[4],2.75 nM
same,Kd,[4],0.0056 nM
N=C(N)NCCC[C@@H](NC(=O)[C@@H](CCCNC(=N)N)NC(=O)CCCCCNC(=O)[C@@H](CCCCN)NC(=O)CCCCCNC(=O)[C@H]1O[C@@H](n2cnc3c(N)ncnc32)[C@H](O)[C@@H]1O)C(N)=O,Selectivity Index,[11],0.7
same,Kd,[2],8.9 nM
same,pIC50,[2],7.22
same,Kd,[12],4.5 nM
same,pIC50,[12],4.87
N=C(N)NCCC[C@@H](NC(=O)[C@@H](CCCNC(=N)N)NC(=O)[C@@H](CCCNC(=N)N)NC(=O)[C@@H](CCCNC(=N)N)NC(=O)[C@@H](CCCNC(=N)N)NC(=O)[C@@H](CCCNC(=N)N)NC(=O)CCCCCNC(=O)[C@@H](CCCCN)NC(=O)CCCCCNC(=O)c1ccc(-c2ccnc(N)n2)s1)C(N)=O ({X1-Ahx}-[dK][Ahx][dR][dR][dR][dR][dR][dR]-NH2),Selectivity Index,[11],10
same,Kd,[12],0.056 nM
same,pIC50,[12],6.78
N=C(N)NCCC[C@@H](NC(=O)[C@@H](CCCNC(=N)N)NC(=O)CNCC(=O)NCCNS(=O)(=O)c1cccc2cnccc12)C(N)=O,pIC50,[1],> 4.5
O=S(=O)(NCCNC/C=C/c1ccc(Br)cc1)c1cccc2cnccc12,Kd,[12],17 nM
same,pIC50,[12],4.3
N=C(N)NCCC[C@@H](NC(=O)[C@@H](CCCNC(=N)N)NC(=O)[C@@H](CCCNC(=N)N)NC(=O)[C@@H](CCCNC(=N)N)NC(=O)[C@@H](CCCNC(=N)N)NC(=O)[C@@H](CCCNC(=N)N)NC(=O)CCCCCNCCNS(=O)(=O)c1cccc2cnccc12)C(N)=O,IC50,[1],2.45 nM
same,Kd,[1],< 0.5 nM
same,IC50,[3],41.7 nM
same,Kd,[3],13 nM
same,Kd,[15],< 1 nM
same,pIC50,[15],8.26
same,Kd,[16],980 nM
same,pIC50,[16],5.76
same,IC50,[5],2.45 nM
same,Kd,[5],< 0.5 nM
same,IC50,[6],81.3 nM
same,Kd,[6],26 nM
same,Kd,[2],0.53 nM
same,pIC50,[2],8.26
same,IC50,[7],6.46 nM
same,Kd,[7],< 1 nM
same,IC50,[8],72.4 nM
same,Kd,[8],55 nM
NCCCC[C@@H](NC(=O)CCCCCNC(=O)[C@H]1O[C@@H](n2cnc3c(N)ncnc32)[C@H](O)[C@@H]1O)C(=O)NCCCCCC(=O)N[C@H](CCCN=C(N)N)C(=O)N[C@H](CCCN=C(N)N)C(N)=O,IC50,[1],162 nM
same,Kd,[1],7 nM
same,IC50,[4],977 nM
same,Kd,[4],6.4 nM
O=S(=O)(c1cccc2cnccc12)N1CCCNCC1 [FASUDIL],Kd,[12],420 nM
same,pIC50,[12],4.26
N=C(N)NCCC[C@H](NC(=O)[C@H](CCCNC(=N)N)NC(=O)[C@H](CCCNC(=N)N)NC(=O)[C@H](CCCNC(=N)N)NC(=O)[C@H](CCCNC(=N)N)NC(=O)[C@H](CCCNC(=N)N)NC(=O)[C@H](CO)NC(=O)CCNCCNS(=O)(=O)c1cccc2cnccc12)C(N)=O,IC50,[17],300 nM
same,IC50,[18],3 nM
N=C(N)NCCC[C@@H](NC(=O)[C@@H](CCCNC(=N)N)NC(=O)[C@@H](CCCNC(=N)N)NC(=O)[C@@H](CCCNC(=N)N)NC(=O)[C@@H](CCCNC(=N)N)NC(=O)[C@@H](CCCNC(=N)N)NC(=O)CNCC(=O)NCCNS(=O)(=O)c1cccc2cnccc12)C(N)=O,IC50,[1],151 nM
same,Kd,[1],6.4 nM
same,Kd,[2],120 nM
same,pIC50,[2],6.1
N=C(N)NCCC[C@@H](NC(=O)[C@@H](CCCNC(=N)N)NC(=O)CCCCCNC(=O)[C@@H](CCCCN)NC(=O)CCCCCCCN1CCCN(S(=O)(=O)c2cccc3cnccc23)CC1)C(N)=O,Kd,[15],83 nM
same,pIC50,[15],6.16
same,pIC50,[16],> 5
same,Selectivity Index,[11],0.56
same,Kd,[12],25 nM
same,pIC50,[12],4.12
